Laboratory results as given in patent publication US20240189264A1 (priority 2024, published 2024).

CC(C)NCC(O)COc1ccc(CC(N)=O)cc1 (centres unmarked) [Atenolol]
C-reactive protein (CRP) level (in words) (patients taking atenolol single dose): significantly high
response of hypertensive patients to atenolol (single dose of 100 mg atenolol, oral administration): mostly respond
